The numbers were not newly measured in patent US20130216646A1, “Nanoparticles of Nutritional and Pharmaceutical Compounds” (priority 2011, published 2013), which cites them from elsewhere.

Read-outs that look alike come from different tables or passages of the source.

For series [1] the following is noted: for Sojourn time: another study.
For series [2] the following is noted: dogs.
For series [3] the following is noted: in vivo.

Turning to `[Ca+2]` [calcium], the “Share of calcium absorption occurring in the duodenum” value (rat intestine, another study) was 7%; the “Share of calcium absorption occurring in the duodenum” value (rat small intestine, one study) is reported as 8%; the “Share of calcium absorption occurring in the duodenum” value in series [2] is reported as 4%. For the same compound, the “Share of calcium absorption occurring in the ileum” value (rat intestine, another study) is 65%; the “Share of calcium absorption occurring in the ileum” value (rat small intestine, one study) was 88%; the “Share of calcium absorption occurring in the ileum” value in series [2] is listed as 80%. Further, the “Share of calcium absorption occurring in the jejunum” value (rat intestine, another study) was 17%; the “Share of calcium absorption occurring in the jejunum” value (rat small intestine, one study) was 4%; the “Share of calcium absorption occurring in the jejunum” value in series [2] is recorded as 16%. Further, the Transit half-time in series [1] (rat duodenum) is on record as 6 min; in series [1] (rat ileum), 102 min. Further, the figures for the Sojourn time in series [1] (rat duodenum) and in series [1] (rat ileum) were 2.2 min and 121.5 min, respectively. In addition, in series [3], the “Share of overall calcium absorption accounted for by the small intestine” value is recorded as “about 90%”.
